# What was measured:
# [1] = Metabolic stability in human liver microsomes assessed as parent compound remaining incubated for 10 mins in presence of NADPH by triple quadrupole mass spectrometry; format: ADME, Microsome; details: read-out: Stabilty
# [2] = Solubility of compound in phosphate buffer pH 7.4 using excess solid incubated for 24 hrs under agitation condition by reverse phase LC analysis; format: physicochemical
# Apelin receptor [3] = target: T1, Apelin receptor (Rattus norvegicus, UniProt Q9JHG3); assay: Agonist activity at rat APJ receptor expressed in human HEK293 cells assessed as inhibition of forskolin-induced cAMP accumulation incubated for 1 hr by TR-FRET assay; format: functional, cell-based
# T1 sequence (Q9JHG3 whole entry): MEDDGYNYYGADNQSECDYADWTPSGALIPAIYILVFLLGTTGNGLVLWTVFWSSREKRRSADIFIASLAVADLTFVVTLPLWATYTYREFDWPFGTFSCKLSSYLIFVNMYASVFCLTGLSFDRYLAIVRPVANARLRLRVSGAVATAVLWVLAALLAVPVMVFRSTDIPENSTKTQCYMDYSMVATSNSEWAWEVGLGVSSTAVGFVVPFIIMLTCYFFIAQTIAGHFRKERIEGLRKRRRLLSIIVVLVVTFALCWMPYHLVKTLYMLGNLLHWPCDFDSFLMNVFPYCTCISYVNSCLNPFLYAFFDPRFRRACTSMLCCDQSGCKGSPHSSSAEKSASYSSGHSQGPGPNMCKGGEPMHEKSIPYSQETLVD
# Apelin receptor [4] = target: T2, Apelin receptor (Homo sapiens, UniProt P35414); assay: Agonist activity at human APJ receptor expressed in human HEK293 cells assessed as inhibition of forskolin-induced cAMP accumulation incubated for 1 hr by TR-FRET assay; format: functional, cell-based
# T2 sequence (P35414 whole entry): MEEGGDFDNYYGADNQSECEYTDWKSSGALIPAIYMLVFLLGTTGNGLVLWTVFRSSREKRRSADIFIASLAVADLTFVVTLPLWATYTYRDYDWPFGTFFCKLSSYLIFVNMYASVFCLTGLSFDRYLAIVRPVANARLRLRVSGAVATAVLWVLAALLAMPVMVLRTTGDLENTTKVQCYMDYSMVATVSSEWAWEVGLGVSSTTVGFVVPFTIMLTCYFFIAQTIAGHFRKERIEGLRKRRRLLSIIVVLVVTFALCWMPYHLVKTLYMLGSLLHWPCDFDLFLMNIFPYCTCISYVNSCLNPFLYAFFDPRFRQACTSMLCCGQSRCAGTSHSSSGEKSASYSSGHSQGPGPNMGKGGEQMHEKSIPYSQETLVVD
# [5] = Metabolic stability in rat liver microsomes assessed as parent compound remaining incubated for 10 mins in presence of NADPH by triple quadrupole mass spectrometry; format: ADME, Microsome; details: read-out: Stabilty
# in vivo [6] = details: cynomolgus monkey, po, 3 mg/kg
# Description: AUC (0 to infinity) in cynomolgus monkey at 3 mg/kg, po measured measured up to 72 hrs by LC/MS/MS analysis
# [7] = Renal clearance in Sprague-Dawley rat at 3 mg/kg, po measured up to 48 hrs by LC/MS/MS analysis; format: ADME, organism-based; details: in vivo
# [8] = Stability in monkey liver microsomes assessed as parent compound remaining at 30 uM incubated for 45 mins; format: ADME, Macaca mulatta, Microsome; details: rhesus monkey, read-out: Stabilty
# [9] = Glutathione reactivity of the compound assessed as GSH-adduct formation; format: physicochemical
# Rattus norvegicus [10] = assay: Hemodynamic activity in Sprague-Dawley rat model of acute pressure-volume loop assessed as peripheral vasodilation by measuring free plasma drug concentration at 10 ug/kg/min administered as iv infusion measured at 5 mins; format: functional; details: dose 10 µg/kg/min
# cells [11] = details: Macaca mulatta, HEK293, 1 h
# [12] = Half life in Sprague-Dawley rat at 3 mg/kg, po measured up to 48 hrs by LC/MS/MS analysis; details: in vivo
# in vivo [13] = details: cynomolgus monkey, po, 3 mg/kg; remark: listed apart in the source
# Description: Cmax in cynomolgus monkey at 3 mg/kg, po measured measured up to 48 hrs by LC/MS/MS analysis
# Rattus norvegicus [14] = assay: Hemodynamic activity in Sprague-Dawley rat model of acute pressure-volume loop assessed as increase in cardiac output at 10 ug/kg/min administered as iv infusion measured at 5 mins relative to control; format: functional; details: dose 10 µg/kg/min
# [15] = Oral bioavailability in Sprague-Dawley rat at 3 mg/kg measured measured up to 48 hrs by LC/MS/MS analysis; format: ADME, organism-based; details: in vivo
# in vivo [16] = details: Sprague-Dawley, rat, po, 3 mg/kg
# Description: Cmax in Sprague-Dawley rat at 3 mg/kg, po measured up to 48 hrs by LC/MS/MS analysis
# Apelin receptor [17] = target: T2, Apelin receptor; assay: Displacement of [3H]Apelin-13 from human APJ receptor stably expressed in human HEK293 cell membrane incubated for 120 mins by TopCount scintillation plate reader analysis; format: cell membranes
# in vivo [18] = details: Sprague-Dawley, rat, po, 3 mg/kg; remark: listed apart in the source
# Description: AUC (0 to infinity) in Sprague-Dawley rat at 3 mg/kg, po measured up to 48 hrs by LC/MS/MS analysis
# [19] = Stability in human liver microsomes assessed as parent compound remaining at 30 uM incubated for 45 mins; format: ADME, Microsome; details: read-out: Stabilty
# [20] = Urinary excretion in cynomolgus monkey at 3 mg/kg, po measured measured up to 72 hrs by LC/MS/MS analysis; details: in vivo
# [21] = Half life in cynomolgus monkey at 3 mg/kg, po measured measured up to 72 hrs by LC/MS/MS analysis; details: in vivo
# cells [22] = details: Canis lupus familiaris, HEK293, 1 h
# [23] = Oral bioavailability in cynomolgus monkey at 3 mg/kg measured measured up to 72 hrs by LC/MS/MS analysis; format: ADME, organism-based, Macaca fascicularis; details: in vivo
# [24] = Stability in rat liver microsomes assessed as parent compound remaining at 30 uM incubated for 45 mins; format: ADME, Microsome; details: read-out: Stabilty
Structure (SMILES),remaining at 10 min [1],solubility thermodynamic at 24 h [2],EC50 (Apelin receptor [3]),EC50 (Apelin receptor [4]),remaining at 10 min [5],further results
COc1cccc(OC)c1-c1c(C2CCCC2)[nH]c(=O)c(-c2nnc(Cc3ccc(Cl)cc3)o2)c1O,80%,0.004 mg/mL,0.51 nM,0.24 nM,66%,
COc1cccc(OC)c1-c1c(C2CC2)[nH]c(=O)c(-c2nnc(Cc3ccc(Cl)cc3)o2)c1O,88%,0.012 mg/mL,15 nM,11 nM,51%,
CCCCc1nc(O)c(-c2nnc(Cc3ccccc3Cl)o2)c(O)c1-c1c(OC)cccc1OC,82%,,18 nM,8.6 nM,24%,
CCCCc1[nH]c(=O)c(-c2nnc(Cc3ccccc3)o2)c(O)c1-c1c(OC)cccc1OC,87%,,31 nM,,53%,
COCCc1[nH]c(=O)c(-c2nnc(Cc3ccc(Cl)cc3)o2)c(O)c1-c1c(OC)cccc1OC,86%,0.073 mg/mL,1.4 nM,,73%,
CCCCc1nc(O)c(-c2nnc(Cc3ccc(Cl)cc3)o2)c(O)c1-c1c(OC)cccc1OC,66%,< 0.001 mg/mL,1.2 nM,0.4 nM,22%,
CCCCc1[nH]c(=O)c(C(=O)OCC)c(O)c1-c1c(OC)cccc1OC,89%,,980 nM,,24%,
CCCCc1nc(O)c(-c2nnc(Cc3cccc(Cl)c3)o2)c(O)c1-c1c(OC)cccc1OC,88%,,7.3 nM,2.6 nM,38%,
CCOCc1nc(O)c(-c2nnc(Cc3ccc(Cl)cc3)o2)c(O)c1-c1c(OC)cccc1OC,94%,0.026 mg/mL,0.23 nM,0.12 nM,74%,
CCCCc1[nH]c(=O)c(-c2nc(Cc3ccccc3)no2)c(O)c1-c1c(OC)cccc1OC,69%,,120 nM,,54%,
CCCCc1[nH]c(=O)c(-c2n[nH]c(Cc3ccccc3)n2)c(O)c1-c1c(OC)cccc1OC,36%,,430 nM,,15%,
CCOCc1[nH]c(=O)c(-c2nnc(Cc3ccc(Cl)nc3)o2)c(O)c1-c1c(OC)cccc1OC,96%,0.11 mg/mL,0.58 nM,0.17 nM,76%,
CCCCc1[nH]c(=O)c(-c2nnc(-c3ccc(Cl)cc3)o2)c(O)c1-c1c(OC)cccc1OC,99%,,450 nM,,36%,
CCOCc1nc(O)c(-c2nnc(Cc3ccc(Cl)cn3)o2)c(O)c1-c1c(OC)cccc1OC [BMS-986224],91%,0.22 mg/mL,0.024 nM,0.023 nM,92%,"AUC(0-inf) at 72 h (in vivo [6]): 15.3 µM·h; dose excreted at 48 h [7]: 4%; remaining at 0.75 h, 30 µM [8]: > 95%; Drug metabolism [9]: Not Active; Cp(f) (Rattus norvegicus [10]): 18 nM; EC50 (cells [11]): 0.08 nM; half-life at 48 h [12]: 2.5 h; Cmax at 48 h (in vivo [13]): 1.5 µM; Activity (Rattus norvegicus [14]): 12%; bioavailability [15]: 77%; Cmax at 48 h (in vivo [16]): 5.6 µM; Ki (Apelin receptor [17]): 0.074 nM; AUC(0-inf) at 48 h (in vivo [18]): 34 µM·h; remaining at 0.75 h, 30 µM [19]: > 95%; dose excreted in urine [20]: 12%; half-life at 72 h [21]: 3.6 h; EC50 (cells [22]): 0.03 nM; bioavailability [23]: 56%; remaining at 0.75 h, 30 µM [24]: > 95%"
